Assay results published in the supplement of paper PMC11451515.

System: P12-Ichikawa
Experiment: cell viability relative to DMSO control; higher = less cytotoxic
Conditions: 48 h
Outline: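 Before seeding, each leukemia line was adapted for at least four passages in each medium. NOMO1 or SEM cells (500 cells/well) and P12-Ichikawa cells (1000 cells/well) went into 1536-well plates at 5 μl, then received library compounds in DMSO by pin dosing across 11 threefold concentrations, 47 μM to 0.79 nM. Readout was CellTiter-Glo One luminescence after 48 h at 37°C, and viability is given as a per-plate percentage of DMSO wells, with cell-free wells as background.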

[1] = HPLM + 10% dialyzed FBS, 0.000781 µM
[2] = HPLM + 10% dialyzed FBS, 0.00234 µM
[3] = HPLM + 10% dialyzed FBS, 0.00702 µM
[4] = HPLM + 10% dialyzed FBS, 0.0211 µM
[5] = HPLM + 10% dialyzed FBS, 0.0632 µM
[6] = HPLM + 10% dialyzed FBS, 0.19 µM
[7] = HPLM + 10% dialyzed FBS, 0.569 µM
[8] = HPLM + 10% dialyzed FBS, 1.71 µM
[9] = HPLM + 10% dialyzed FBS, 5.12 µM
[10] = HPLM + 10% dialyzed FBS, 15.4 µM
[11] = HPLM + 10% dialyzed FBS, 46.1 µM
[12] = RPMI 5 mM glucose + 10% FBS, 0.000781 µM
[13] = RPMI 5 mM glucose + 10% FBS, 0.00234 µM
[14] = RPMI 5 mM glucose + 10% FBS, 0.00702 µM
[15] = RPMI 5 mM glucose + 10% FBS, 0.0211 µM
[16] = RPMI 5 mM glucose + 10% FBS, 0.0632 µM
[17] = RPMI 5 mM glucose + 10% FBS, 0.19 µM
[18] = RPMI 5 mM glucose + 10% FBS, 0.569 µM
[19] = RPMI 5 mM glucose + 10% FBS, 1.71 µM
[20] = RPMI 5 mM glucose + 10% FBS, 5.12 µM
[21] = RPMI 5 mM glucose + 10% FBS, 15.4 µM
[22] = RPMI 5 mM glucose + 10% FBS, 46.1 µM
[23] = RPMI 5 mM glucose + 10% dialyzed FBS, 0.000781 µM
[24] = RPMI 5 mM glucose + 10% dialyzed FBS, 0.00234 µM
[25] = RPMI 5 mM glucose + 10% dialyzed FBS, 0.00702 µM
[26] = RPMI 5 mM glucose + 10% dialyzed FBS, 0.0211 µM
[27] = RPMI 5 mM glucose + 10% dialyzed FBS, 0.0632 µM
[28] = RPMI 5 mM glucose + 10% dialyzed FBS, 0.19 µM
[29] = RPMI 5 mM glucose + 10% dialyzed FBS, 0.569 µM
[30] = RPMI 5 mM glucose + 10% dialyzed FBS, 1.71 µM
[31] = RPMI 5 mM glucose + 10% dialyzed FBS, 5.12 µM
[32] = RPMI 5 mM glucose + 10% dialyzed FBS, 15.4 µM
[33] = RPMI 5 mM glucose + 10% dialyzed FBS, 46.1 µM

| SMILES | cell viability [1] [%] | cell viability [2] [%] | cell viability [3] [%] | cell viability [4] [%] | cell viability [5] [%] | cell viability [6] [%] | cell viability [7] [%] | cell viability [8] [%] | cell viability [9] [%] | cell viability [10] [%] | cell viability [11] [%] | cell viability [12] [%] | cell viability [13] [%] | cell viability [14] [%] | cell viability [15] [%] | cell viability [16] [%] | cell viability [17] [%] | cell viability [18] [%] | cell viability [19] [%] | cell viability [20] [%] | cell viability [21] [%] | cell viability [22] [%] | cell viability [23] [%] | cell viability [24] [%] | cell viability [25] [%] | cell viability [26] [%] | cell viability [27] [%] | cell viability [28] [%] | cell viability [29] [%] | cell viability [30] [%] | cell viability [31] [%] | cell viability [32] [%] | cell viability [33] [%] |
| --- | --- | --- | --- | --- | --- | --- | --- | --- | --- | --- | --- | --- | --- | --- | --- | --- | --- | --- | --- | --- | --- | --- | --- | --- | --- | --- | --- | --- | --- | --- | --- | --- | --- |
| CN(C)C/C=C/C(=O)Nc1ccc(C(=O)Nc2cccc(Nc3ncc(Cl)c(-c4c[nH]c5ccccc45)n3)c2)cc1 | 81.9 | 85.6 | 85.8 | 94.8 | 82.5 | 78.6 | 17.3 | 10.2 | 4.95 | 3.8 | 3.94 | 78 | 85.3 | 84.2 | 89 | 92.9 | 77.1 | 12.3 | 6.62 | 3.34 | 2.59 | 3.22 | 79.7 | 82.9 | 93 | 97 | 93.2 | 77.6 | 17.9 | 11.6 | 5.08 | 2.82 | 3.14 |
| N[S+](=O)([O-])c1ccc(Nc2nc(OCC3CCCCC3)c3[nH]cnc3n2)cc1 | 114 | 115 | 117 | 118 | 48 | 24.2 | 13.1 | 15.9 | 20.3 | 52.2 | 73 | 117 | 118 | 115 | 120 | 103 | 109 | 32.3 | 14.7 | 15.2 | 19.4 | 66.2 | 120 | 123 | 111 | 120 | 109 | 108 | 25.2 | 20.7 | 22.5 | 36.5 | 59.5 |
| CC(C(C)N1CC(=O)NC(=O)C1)N1CC(=O)NC(=O)C1 (centres undefined) | 117 | 123 | 121 | 119 | 131 | 130 | 130 | 117 | 109 | 102 | 89.6 | – | – | – | – | – | – | – | – | – | – | – | – | – | – | – | – | – | – | – | – | – | – |
| C[C@H](CCC(=O)O)[C@H]1CC[C@H]2[C@@H]3[C@H](O)C[C@@H]4C[C@H](O)CC[C@]4(C)[C@H]3CC[C@]12C | 94.6 | 87.9 | 93.9 | 92.4 | 98.8 | 97.5 | 93.3 | 92.8 | 92.2 | 93.9 | 94.2 | 91 | 88.4 | 89.2 | 91.7 | 90.5 | 90.1 | 90.7 | 90 | 88.1 | 89.8 | 95.6 | 81.1 | 82.7 | 93.3 | 93 | 89.6 | 85.3 | 88.2 | 87.2 | 86.5 | 85.9 | 91.1 |
| C[C@]1(O)CC(C1)C2=NC(=C3[N]2C=CN=C3N)C4=CC5=C(C=C4)C=CC(=N5)C6=CC=CC=C6 (centres undefined) | 94 | 97.3 | 104 | 103 | 107 | 97.7 | 105 | 97.4 | 75.5 | 4.9 | 1.89 | 102 | 101 | 103 | 101 | 93.5 | 89.6 | 96.4 | 59.5 | 50.3 | 3.05 | 1.49 | 96.1 | 96.5 | 94.5 | 98.2 | 101 | 94.5 | 99 | 71 | 58.2 | 4.69 | 1.85 |
| CC/C=C\C[C@H]1C(=O)CC[C@@H]1CC(=O)OC | 121 | 119 | 126 | 125 | 126 | 126 | 117 | 115 | 115 | 114 | 108 | – | – | – | – | – | – | – | – | – | – | – | 122 | 129 | 124 | 121 | 131 | 125 | 125 | 126 | 125 | 116 | 109 |
| C=CC(=O)Nc1cc2c(Nc3ccc(F)c(Cl)c3)ncnc2cc1C#CC(C)(C)N1CCN(C)CC1 | 103 | 108 | 99.5 | 97.4 | 102 | 106 | 107 | 102 | 58.9 | 5.08 | 23.4 | 95.6 | 105 | 101 | 102 | 112 | 106 | 107 | 106 | 65.7 | 5.56 | 15.3 | 97.4 | 101 | 96.1 | 101 | 101 | 98.2 | 96.1 | 95.7 | 51 | 5.48 | 12.7 |
| CN(C)CCCC1(c2ccc(F)cc2)OCc2cc(C#N)ccc21 (centres undefined) | 98.8 | 96.8 | 95.5 | 90.1 | 95.1 | 94.8 | 91.8 | 99.9 | 69.7 | 87.7 | 74.7 | 91 | 83.8 | 88.2 | 91.1 | 96.4 | 89.7 | 87.1 | 85.8 | 83.2 | 82.5 | 74.3 | 90.6 | 97.3 | 91.1 | 92.7 | 94.4 | 92.3 | 89.3 | 91.9 | 78.5 | 80.2 | 78.4 |
| CCCOc1ccc(C(=O)OCCN(CC)CC)cc1N | 106 | 116 | 79.2 | 113 | 122 | 119 | 122 | 123 | 125 | 119 | 118 | 104 | 130 | 69.2 | 112 | 129 | 128 | 130 | 126 | 133 | 115 | 120 | 100 | 115 | 72.8 | 111 | 125 | 123 | 123 | 122 | 130 | 127 | 110 |
| Cc1ccc2nc(NCCN)c3ncc(C)n3c2c1 | 104 | 105 | 106 | 101 | 106 | 104 | 103 | 105 | 109 | 94.8 | 42.5 | 97.8 | 111 | 105 | 107 | 107 | 108 | 102 | 104 | 102 | 97.4 | 23.2 | 102 | 110 | 104 | 105 | 104 | 91 | 101 | 102 | 103 | 101 | 33.7 |
| Nc1nc(F)nc2c1ncn2[C@@H]1O[C@H](COP(=O)(O)O)[C@@H](O)[C@@H]1O | 119 | 120 | 121 | 121 | 130 | 124 | 120 | 133 | 128 | 84.2 | 52.2 | 122 | 121 | 132 | 129 | 122 | 142 | 126 | 141 | 137 | 110 | 74.8 | 127 | 123 | 123 | 123 | 130 | 138 | 124 | 126 | 129 | 99.5 | 62.1 |
| C/C1=C2/[N]3[Co+]456([OH])<-[N]7=C1[C@@H](CCC(N)=O)C(C)(C)/C7=C/C1=[N]->4C(=C(/C)C4=[N]->5[C@@](C)([C@H]3[C@H](CC(N)=O)[C@@]2(C)CCC(=O)NC[C@@H](C)OP(=O)([O-])O[C@H]2[C@@H](O)[C@@H](n3c[n]->6c5cc(C)c(C)cc53)O[C@@H]2CO)[C@@](C)(CC(N)=O)[C@@H]4CCC(N)=O)/[C@@](C)(CC(N)=O)[C@@H]1CCC(N)=O | 103 | 97.2 | 95.9 | 99.2 | 99.9 | 97.8 | 92.8 | 93.2 | 76.8 | 77.7 | 71.3 | 97.5 | 88.7 | 97.9 | 98.1 | 95.7 | 88.3 | 98.8 | 93.4 | 85.8 | 85.4 | 69.8 | 82.3 | 85.2 | 86.5 | 77.3 | 83 | 79.9 | 75.7 | 76.7 | 73.9 | 76.9 | 61 |
| CNc1nc(-c2ccc3c(N)n[nH]c3c2)cc(N2C[C@@H](C(=O)NC3CCCCC3)CC[C@H]2C)n1 | 97.8 | 85.9 | 90.8 | 95.6 | 98.6 | 90.8 | 83.5 | 76.9 | 75.3 | 72.3 | 13.4 | 76.7 | 91.4 | 82.5 | 86.5 | 78.6 | 65.6 | 64 | 57.7 | 54.9 | 51 | 12.8 | 83.5 | 86.6 | 79.9 | 86.5 | 88.4 | 69.9 | 65.5 | 63.5 | 59.8 | 52.1 | 27.8 |
| Oc1cc(-c2nc(-c3ccccc3)[nH]c2-c2ccncc2)ccc1Cl | 109 | 110 | 110 | 115 | 118 | 117 | 106 | 101 | 92.7 | 82.9 | 65.7 | 122 | 111 | 117 | 122 | 119 | 118 | 111 | 113 | 84.7 | 74.5 | 45.2 | – | – | – | – | – | – | – | – | – | – | – |
| Nc1n[nH]c2nnc(-c3c(-c4ccccc4)nn4ccccc34)cc12 | 104 | 117 | 112 | 120 | 126 | 126 | 120 | 118 | 90 | 18.8 | 10.6 | 109 | 116 | 123 | 118 | 134 | 119 | 141 | 138 | 95.3 | 17.7 | 9.91 | 113 | 116 | 128 | 121 | 133 | 134 | 136 | 131 | 132 | 53.6 | 17.9 |
| C[C@H](NC(=O)Cc1cc(F)cc(F)c1)C(=O)N[C@H](C(=O)OC(C)(C)C)c1ccccc1 | 94 | 90.9 | 94.9 | 94.1 | 94.6 | 92.5 | 89 | 88.3 | 86.9 | 88 | 80.4 | 92.3 | 91.7 | 91.2 | 87 | 90.7 | 95.4 | 89.1 | 82.7 | 87.9 | 87.6 | 92.8 | 78.9 | 82.5 | 79.8 | 79.7 | 86.1 | 88.8 | 78.2 | 86.1 | 83.7 | 77.4 | 73.3 |
